Measured values from PubChem BioAssay (NCI).
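In this assay, cells in 96-well plates receive the compound at five concentrations for 48 hours. Endpoints are linearly interpolated between the surrounding concentrations. Definition used: TGI = concentration required for complete inhibition of growth.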 Where a SMILES comes first, the peptide text is derived from it.

Columns and labels:
Assay in all cases: NCI anticancer screen, dose series, 48 h
OVCAR-3 ovarian = test system: OVCAR-3 ovarian
786-0 renal = test system: 786-0 renal
SNB-19 CNS = test system: SNB-19 CNS
SK-MEL-5 melanoma = test system: SK-MEL-5 melanoma
SK-MEL-2 melanoma = test system: SK-MEL-2 melanoma
OVCAR-4 ovarian = test system: OVCAR-4 ovarian
SR leukemia = test system: SR leukemia
NCI-H23 lung = test system: NCI-H23 lung
HOP-92 NSCLC = test system: HOP-92 NSCLC
NCI/ADR-RES ovarian = test system: NCI/ADR-RES ovarian
HT29 colon = test system: HT29 colon
RPMI-8226 leukemia = test system: RPMI-8226 leukemia
SF-295 CNS = test system: SF-295 CNS
CAKI-1 renal = test system: CAKI-1 renal
KM12 colon = test system: KM12 colon

SMILES	TGI (OVCAR-3 ovarian) [µM]	TGI (786-0 renal) [µM]	TGI (SNB-19 CNS) [µM]	TGI (SK-MEL-5 melanoma) [µM]	TGI (SK-MEL-2 melanoma) [µM]	TGI (OVCAR-4 ovarian) [µM]	TGI (SR leukemia) [µM]	TGI (NCI-H23 lung) [µM]	TGI (HOP-92 NSCLC) [µM]	TGI (NCI/ADR-RES ovarian) [µM]	TGI (HT29 colon) [µM]	TGI (RPMI-8226 leukemia) [µM]	TGI (SF-295 CNS) [µM]	TGI (CAKI-1 renal) [µM]	TGI (KM12 colon) [µM]
COC(=O)C1(C)OC(C)=NC1(C(=O)OC)C(=O)OC (stereo unspecified)	> 100	> 100	> 100	> 100	> 100	> 100	> 100	> 100	> 100	> 100	> 100	> 100	> 100	> 100	> 100
C[N+]12CCCCC1C(CN1C(=O)c3ccccc3C1=O)CCC2 (stereo unspecified)	> 100	> 100	> 100	> 100	> 100	> 100	> 100	> 100	> 100	> 100	> 100	> 100	> 100	> 100	> 100
COC(=O)CNCC1OC2OC(C)(C)OC2C1N=[N+]=[N-] (stereo unspecified)	> 100	> 100	> 100	> 100	> 100	> 100	> 100		> 100	> 100	> 100	> 100	> 100	> 100	> 100
CC(=O)NC(CO)C(=O)NC(Cc1ccc(O)cc1)C(=O)NCC(N)=O (stereo not drawn) (Ac-Ser-Tyr-Gly-NH2; configuration not given here)	> 100	> 100	> 100	> 100	> 100	> 100	> 100	> 100	> 100	> 100	> 100	> 100	> 100	> 100	> 100
COc1cccc(C(=O)N[C@@H]2[C@H](O)[C@@H](CO)O[C@H]2n2cnc3c(N)ncnc32)c1	> 100	> 100	> 100	> 100	> 100	> 100	> 100	> 100	> 100	> 100	> 100	> 100	> 100	> 100	> 100
COC(=O)C1=NN2c3ccccc3CN([C@@H](C)c3ccccc3)C(=O)[C@H]2[C@@H]1C	> 100	> 100	> 100	30.1	> 100	> 100	> 100	> 100	> 100	> 100	> 100		> 100	> 100	> 100
N#CCN(Cc1ccccc1)[C@@H]1CCC[C@]1(O)C#Cc1ccc2c(c1)OCO2	28.9	29.2	41.5	30	33.1	31.2	40.9	42	27	51.8	36.1	42.2	41.8	77.4	35.4
C=C(CC)C[C@@H]1C[C@]2(C(=O)OC)c3[nH]c4ccccc4c3CCN2C1=O	27.9	33.5	> 100	31.3	33.1	> 100	> 100	49.7	38.1	51.1	42		31.1	48.6	58.9
C=CC[C@H]1[C@H](O[Si](C)(C)C(C)(C)C)C=CC(=O)[C@@H]1CC(=O)OCC	26.4	27.6	25.7	22.9	28.1	25.2	41.7	33.6	24.2	24.4	21.2	12.2	27.8	25.1	27.2
CN1CCCC(C(=O)OCC(=O)C2(O)CCC3C4CCC5=CC(=O)CCC5(C)C4C(O)CC32C)C1 (stereo unspecified)	32.8	14.3	30.9	41.3	39.3	32.5	4.47	46.4	> 100	55.3	27	27.8	46.6	> 65.8	> 69.7
CC(C)(CN)SCc1ccccc1	> 100	> 100	> 100	> 100	> 100	> 100	> 100		> 100	> 100	> 100	> 100	> 100	> 100	> 100
CC(C)OP(=O)(OC(C)C)C(Nc1cccc(C(F)(F)F)c1)c1ccccc1 (stereo unspecified)	> 100	> 100	> 100	76.5	> 100	> 100	> 100	> 100	> 100	> 100	> 100	87.3	> 100	> 100	> 100
CCSC12CC3c4cccc5c4C(CN5C(=O)c4ccccc4)CC3(O1)N(C)C2=O (stereo unspecified)	> 100	> 100	> 100	28.9	89.5	> 100	77.6	69.8	71.9	> 100	> 100		> 100	> 100	> 100
Cc1cn2c(/C=C3/C(=O)Nc4ccccc43)c(C)nc2s1		> 100	> 100	14.6	5.57		47	> 100	> 100	> 100	15.5	21	> 100	> 100	29.7
CCCN(CCC)C(=O)c1c(Cl)c2cccnc2n2c(C)cnc12	> 100	> 100	> 100	> 100		> 100	> 100	> 100	> 100	> 100	> 100	> 100	> 100	79.7	> 100
COc1ccccc1Cn1[nH]c(=O)c2cc([N+](=O)[O-])ccc21	83	> 100	> 100	> 100	> 100	> 100	> 100	> 100	93.4	> 100	> 100	> 100		> 100	> 100
